# Tested on: embryogenic cell lines F1, F2-1, F2-2, F2-3 (previously cryopreserved)
# Assay: Maturation of somatic embryos on media with different ammonium to nitrate molar ratios and carbon sources
# Type: cell-based, Pinus sylvestris
# Details: ABA tested at 20, 35 y 60 μM in previous evaluation
# Experimental: For maturation process is highly relevant the interaction between nitrogen and carbon source, and the type of the carbon source. […] High concentration of abscisic acid has to be added when starting maturation in order to acquire best quality embryos and avoiding precocious germination; high average of conifers protocols ABA concentration varying between 16 μM and 24 μM. However for Pinus genera ABA is required between 60 μM and 100 μM. […] In order to produce gymnosperm mature somatic embryos with normal germination, is required such embryos developing on medium supplemented with high concentration of desiccant compound.
# Under the evaluation done to produce normal embryos, was utilized between 400 and 600 mg of embryogenic tissue per sample, such amount was dispersed on filter paper as no thin layer, with two washing only with liquid mineral medium and they were exposed only two weeks on medium supplemented with activated charcoal.
smiles,measurement,value
"CC1=CC(=O)CC(C)(C)[C@@]1(O)/C=C/C(C)=C\C(=O)O [ABA, abscisic acid]",Effect on maturation of the cell lines,non effect

# From patent publication US20030113916A1, “Method for producing somatic embryos of scot pine (p sylvestris)” (priority 2000, published 2003)
